Measurements: paper PMC9305623, “Next generation GLP-1/GIP/glucagon triple agonists normalize body weight in obese mice” (Molecular Metabolism, 2022)
*1 amine or outer side, *2 acyl side, *3 side chain or, on linkers, in order; H or OH if unused. Where a SMILES comes first, the peptide text is derived from it. Side-chain parts run from the residue outwards. [ ]: non-standard residue; d: D form. The star is where a group is joined. C20 diacid = O=C(O)CCCCCCCCCCCCCCCCCCC(=O)*; γGlu = O=C(O)[C@H](CCC(=O)[*:2])N[*:1]; εLys = N[C@@H](CCCCN[*:1])C(=O)[*:2]; Aib = CC(C)(N)C(=O)O

Tests used:
[1] = target: T1, mGIP Receptor (Mus musculus, UniProt Q0P543); experiment: Receptor activation: cAMP production by CRE-luciferase reporter in stably transfected BHK cells; assay type: cell-based; conditions: relative to native ligand at mouse-derived receptor
T1 construct: expressed in transfected cells; host or cells: baby hamster kidney (BHK) cells, stably transfected, with CRE-firefly luciferase reporter
T1 sequence (Q0P543 19-460): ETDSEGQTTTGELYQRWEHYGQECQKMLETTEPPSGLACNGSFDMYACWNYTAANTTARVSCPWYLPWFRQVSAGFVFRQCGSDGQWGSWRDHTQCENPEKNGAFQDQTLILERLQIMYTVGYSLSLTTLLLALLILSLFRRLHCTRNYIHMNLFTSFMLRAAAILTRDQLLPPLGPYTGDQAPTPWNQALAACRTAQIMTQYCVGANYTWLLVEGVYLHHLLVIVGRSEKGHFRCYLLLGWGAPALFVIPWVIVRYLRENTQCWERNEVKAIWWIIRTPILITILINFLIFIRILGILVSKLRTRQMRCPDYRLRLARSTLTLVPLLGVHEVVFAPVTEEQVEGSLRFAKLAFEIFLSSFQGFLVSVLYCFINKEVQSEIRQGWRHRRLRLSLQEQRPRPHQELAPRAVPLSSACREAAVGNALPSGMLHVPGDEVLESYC
Procedure: Cyclic AMP (cAMP) production was assessed as a proxy for receptor activation using stably transfected baby hamster kidney (BHK) cell lines expressing the DNA for one individual receptor (GLP-1R, GIPR, GcgR; human- or mouse-specific sequence) and the DNA for the firefly luciferase reporter gene linked to the cAMP response element (CRE). The cells were kept in continuous culture at 37 °C and 5% CO2 in Dulbecco's Modified Eagle Medium (DMEM) supplemented with 10% heat-inactivated fetal bovine serum (HI-FBS), 300 μg/mL hygromycin, and 500 μg/mL G418; for cell lines expressing GIPR, the G418 concentration was lowered to 400 μg/mL. Cells were plated in a 96-well poly-D-lysine-coated plate at 5,000 cells per well in growth media and incubated overnight at 37 °C with 5% CO2. After the overnight incubation, the media was removed, the plate was washed once in Dulbecco's phosphase-buffered saline (DPBS), and 50 μL of assay buffer (DMEM without phenol red, 10 mM HEPES, 1x Glutamax, 1% ovalbumin, 0.1% Pluronic F-68) was added to each well. […] The assay plate was covered to protect reagent from light, shaken at 250 rpm at room temperature for 30 min, and read in a microtiter plate reader. EC50 values were calculated using Prism software (GraphPad) with the nonlinear regression log(agonist) vs. response. A minimum of two replicates were measured for each sample.

[2] = tested on: DIO mice; experiment: Energy expenditure in DIO mice (indirect calorimetry); assay type: in vivo, mouse; conditions: daily injections of 3 nmol/kg for 5 days inside an indirect calorimeter
Procedure: Energy expenditure was assessed using a combined indirect calorimetry system (TSE Systems, Chesterfield, MO). Animals were kept in the indirect calorimetry system for 7d; d1 (0–24h) included acclimation to the new cages but no energy expenditure readings, d2 included baseline energy expenditure readings with vehicle injections, d3-7 included experimental energy expenditure readings and treatment injections. Treatment injections begin at t = 48h as indicated by the vertical dashed line and were performed every 24h as indicated by the arrows. O2 consumption and CO2 production were measured every 20 min to determine the respiratory quotient and energy expenditure using the Weir equation (EE=(3.94 x vO2) + (1.1 x vCO2)).

[3] = tested on: DIO mice; experiment: Pharmacodynamics in DIO mice: body weight, food intake, body composition; assay type: in vivo, mouse (male C57BL/6J)
Procedure: Studies were approved by and performed according to the guidelines of the Institutional Animal Care and Use Committee of the University of Cincinnati. Male C57BL/6J mice (Jackson Laboratories) were housed 4 per cage, exposed to a controlled 12 h/12 h light–dark cycle at room temperature (22 °C), and provided ab libitum access to water and a 58% fat, high-sugar diet (D12331, Research Diets) for 12 weeks. Mice exceeding 50 g of body weight were considered diet-induced obese (DIO) and included in studies, where they were randomized and evenly distributed to test groups (n = 8 per group) according to body weight. Test compounds dissolved at a concentration of 0.5–2 μM in a vehicle (pH 7.4) containing 0.05% polysorbate-80, 50 mM sodium phosphate, and 70 mM sodium chloride were administered subcutaneously once daily, unless otherwise noted, during the light cycle for each day of treatment at a volume of 2–5 μL per gram of body weight as necessary to achieve the desired dose. Body weight and food intake were measured immediately prior to dosing each day. The percent change in body was calculated individually for each mouse based on initial body weight prior to the first injection. For intraperitoneal (i.p.) glucose tolerance tests (IPGTT), animals were fasted for 6 h prior to the test but had access to water. Fasted blood glucose levels were measured, then mice were injected with an i.p. glucose load of 2 g/kg from a 200 mg/mL aqueous glucose solution. Tail blood glucose levels were measured 0, 15, 30, 60, 90, and 120 min following the glucose load using a handheld glucometer (Freestyle, Abbott).

[4] = tested on: DIO mice; experiment: Plasma parameters in DIO mice after chronic treatment; assay type: in vivo, mouse; conditions: higher dose (2 nmol/kg), compared to vehicle
[5] = target: T2, hGLP-1 Receptor (Homo sapiens, UniProt P43220); experiment: Receptor activation: cAMP production by CRE-luciferase reporter in stably transfected BHK cells; assay type: cell-based; conditions: compared to the native ligand for the receptor
T2 construct: expressed in transfected cells; host or cells: baby hamster kidney (BHK) cells, stably transfected, with CRE-firefly luciferase reporter
How it was run: (§1)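 BHK cells stably expressing one human receptor plus a CRE-firefly luciferase reporter were stimulated 3 h at 37 °C in phenol-red-free DMEM with 1% ovalbumin and 0.1% Pluronic F-68.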

[6] = target: T3, hGIP Receptor (Homo sapiens, UniProt P48546); experiment: as above; assay type: cell-based; conditions: compared to the native ligand for the receptor
T3 construct: expressed in transfected cells; host or cells: baby hamster kidney (BHK) cells, stably transfected, with CRE-firefly luciferase reporter
T3 sequence (P48546 22-466): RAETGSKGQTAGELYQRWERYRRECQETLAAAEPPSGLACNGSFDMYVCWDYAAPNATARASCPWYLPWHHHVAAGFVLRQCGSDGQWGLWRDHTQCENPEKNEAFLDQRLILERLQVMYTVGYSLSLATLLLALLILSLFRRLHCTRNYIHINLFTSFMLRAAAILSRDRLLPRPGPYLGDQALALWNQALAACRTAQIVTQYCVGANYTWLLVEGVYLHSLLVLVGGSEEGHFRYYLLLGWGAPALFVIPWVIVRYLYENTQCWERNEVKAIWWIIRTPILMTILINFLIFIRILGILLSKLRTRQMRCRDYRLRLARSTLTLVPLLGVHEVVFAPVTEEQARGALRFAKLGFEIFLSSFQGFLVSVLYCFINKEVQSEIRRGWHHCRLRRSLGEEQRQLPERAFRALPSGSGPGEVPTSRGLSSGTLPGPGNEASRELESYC
How it was run: as §1

[7] = target: T4, hGcg Receptor (Homo sapiens, UniProt P47871); experiment: as above; assay type: cell-based; conditions: compared to the native ligand for the receptor
T4 construct: expressed in transfected cells; host or cells: baby hamster kidney (BHK) cells, stably transfected, with CRE-firefly luciferase reporter
How it was run: as §1

T2 sequence (P43220 24-463): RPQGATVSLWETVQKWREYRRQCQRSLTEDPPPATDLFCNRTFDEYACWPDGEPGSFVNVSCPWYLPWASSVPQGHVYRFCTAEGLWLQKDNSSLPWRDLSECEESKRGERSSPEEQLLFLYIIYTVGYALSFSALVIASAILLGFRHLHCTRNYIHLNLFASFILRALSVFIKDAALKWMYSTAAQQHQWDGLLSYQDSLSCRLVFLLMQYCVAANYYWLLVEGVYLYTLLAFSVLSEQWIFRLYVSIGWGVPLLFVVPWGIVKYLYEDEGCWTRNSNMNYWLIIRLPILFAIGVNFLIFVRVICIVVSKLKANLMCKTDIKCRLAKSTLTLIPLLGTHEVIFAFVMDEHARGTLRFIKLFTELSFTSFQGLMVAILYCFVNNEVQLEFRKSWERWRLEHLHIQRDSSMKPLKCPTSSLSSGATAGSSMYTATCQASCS
T4 sequence (P47871 26-477): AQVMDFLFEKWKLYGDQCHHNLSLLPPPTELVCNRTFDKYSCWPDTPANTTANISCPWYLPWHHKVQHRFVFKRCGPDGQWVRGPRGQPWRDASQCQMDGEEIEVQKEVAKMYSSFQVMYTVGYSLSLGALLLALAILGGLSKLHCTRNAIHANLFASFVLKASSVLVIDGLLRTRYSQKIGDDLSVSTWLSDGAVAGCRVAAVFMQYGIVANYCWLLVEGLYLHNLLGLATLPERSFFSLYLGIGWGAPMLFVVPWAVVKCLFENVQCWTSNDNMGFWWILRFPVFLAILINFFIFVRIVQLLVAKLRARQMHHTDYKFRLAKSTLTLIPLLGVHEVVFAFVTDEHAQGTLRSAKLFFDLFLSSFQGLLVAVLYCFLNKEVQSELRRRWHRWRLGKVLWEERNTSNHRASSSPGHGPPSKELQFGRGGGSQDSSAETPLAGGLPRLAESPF

CC[C@H](C)[C@H](NC(=O)[C@H](CO)NC(=O)[C@H](Cc1ccc(O)cc1)NC(=O)[C@H](CC(=O)O)NC(=O)[C@H](CO)NC(=O)[C@@H](NC(=O)[C@H](Cc1ccccc1)NC(=O)[C@@H](NC(=O)CNC(=O)[C@H](Cc1c[nH]cn1)NC(=O)C(C)(C)NC(=O)[C@@H](N)Cc1c[nH]cn1)[C@@H](C)O)[C@@H](C)O)C(=O)N[C@@H](Cc1ccc(O)cc1)C(=O)N[C@@H](CC(C)C)C(=O)N[C@@H](CCC(=O)O)C(=O)N[C@@H](CCCCNC(=O)[C@@H](N)CCCCNC(=O)[C@@H](N)CCCCNC(=O)CC[C@H](NC(=O)CCCCCCCCCCCCCCCCCCC(=O)O)C(=O)O)C(=O)N[C@@H](CCCCN)C(=O)N[C@@H](Cc1ccc(O)cc1)C(=O)N[C@@H](C)C(=O)NC(C)(C)C(=O)N[C@@H](CCC(=O)O)C(=O)N[C@@H](Cc1ccccc1)C(=O)N[C@H](C(=O)N[C@@H](CCC(N)=O)C(=O)N[C@@H](Cc1c[nH]c2ccccc12)C(=O)N[C@@H](CC(C)C)C(=O)N[C@@H](CC(C)C)C(=O)N[C@@H](CCC(=O)O)C(=O)NCC(=O)NCC(=O)N1CCC[C@H]1C(=O)N[C@@H](CO)C(=O)N[C@@H](CO)C(=O)NCC(=O)N[C@@H](C)C(=O)N1CCC[C@H]1C(=O)N1CCC[C@H]1C(=O)N1CCC[C@H]1C(=O)N[C@@H](CO)C(N)=O)C(C)C [Compound 16] (H-H[Aib]HGTFTSDYSIYLEK([εLys-εLys-γGlu-C20 diacid])KYA[Aib]EFVQWLLEGGPSSGAPPPS-NH2)
mGIP Receptor Relative Potency % [1]: 265%
energy expenditure [2]: increased energy expenditure over both vehicle and tirzepatide
locomotor activity [2]: not accompanied by a change in locomotor activity
body weight loss at high dose versus first generation triagonist and SAR441255 ([3]; 2 nmol/kg): significantly superior body weight loss
weight lowering efficacy versus tirzepatide ([3]; 3 nmol/kg daily and dose-escalated (1 to 30 nmol/kg) groups, s.c.): significantly more weight lowering efficacy
Body weight reductions ([3]; 3 nmol/kg daily dose s.c., after 2 weeks of treatment): greater than 30%
origin of weight loss (fat mass vs lean mass) ([3]; 1 or 2 nmol/kg): predominantly derived from a reduction in fat mass, not lean mass
animals achieving body weight normalization (average weight of lean litter mates, 22.5 g) ([3]; n = 8 per group, up-titrated from 1 to 10 nmol/kg over 24 days, then 10 nmol/kg for up to 18 days): Five of the eight
body weight loss in animals achieving body weight normalization ([3]; s.c. once daily, up-titrated from 1 to 10 nmol/kg over 24 days, then 10 nmol/kg for up to 18 days): 55–60%
insulin levels [4]: decreased
hGLP-1 Receptor Relative Potency % [5]: 177%
hGIP Receptor Relative Potency % [6]: 67%
hGcg Receptor Relative Potency % [7]: 102%
